# Earlier results in US20160081975A1, “SOFT GEL COMPOSITIONS AND PRE-GEL CONCENTRATES” (VIRUN, INC., priority 2014, published 2016).
# Details: reported value
row,Substance,HLB value
1,sucrose dipalmitate,7.4
2,sucrose distearate,3
3,sucrose monopalmitate,> 10
